The text below walks through data of patent US10105357B2, “Indication of antibiotic drugs for preparation of cancer inhibition pharmaceutical composition” (LAUNX BIOMEDICAL CO., LTD., priority 2014, dated 2018).

Common to all, as to assay type: cell-based, human
The test system of series [1] is MCF7 (Mammary Gland, Adenocarcinoma). The experiment in a line: Cell viability analysis, breast cancer MCF7. The conditions noted are these: for viability at 10 µM: Homo sapiens, MCF7, 72 h, read-out: cell viability (survival rate), MCF7, drug 10 μM, 72 hours, WST-1, OD450 nm. (In general: Tetrazolium assays rely on reduction of a dye to a coloured formazan, in cell work by metabolically active cells.)

Series [2] concerns A549 (Lung Adenocarcinoma). The experiment in a line: Cell viability analysis, lung cancer A549. The conditions noted are these: for viability at 10 µM: Homo sapiens, A549, 72 h, read-out: cell viability (survival rate), A549, drug 10 μM, 72 hours, WST-1, OD450 nm.
For series [3], the system named is HI650 (Lung Adenocarcinoma). The experiment in a line: Cell viability analysis, lung cancer HI650. The conditions noted are these: for viability at 10 µM: Homo sapiens, NCI-H1650, 72 h, read-out: cell viability (survival rate), H1650, drug 10 μM, 72 hours, WST-1, OD450 nm; for cell viability (survival rate), H1650: drug 10 μM, 72 hours, WST-1, OD450 nm.
Series [4] deals with MKN-45 (Gastric Adenocarcinoma). The experiment in a line: Cell viability analysis, gastric cancer MKN-45. The conditions noted are these: for viability at 10 µM: Homo sapiens, MKN-45, 72 h, read-out: cell viability (survival rate), MKN-45, drug 10 μM, 72 hours, WST-1, OD450 nm.
Series [5] concerns TSGH-8301 (Urinary Bladder Carcinoma). The experiment in a line: Cell viability analysis, bladder cancer TSGH-8301. Conditions: for viability at 10 µM: Homo sapiens, 72 h, read-out: cell viability (survival rate), TSGH, drug 10 μM, 72 hours, WST-1, OD450 nm.
The test system of series [6] is HepG2 (Hepatocellular Carcinoma). The experiment in a line: Cell viability analysis, hepatic cancer HepG2. Conditions: for viability at 10 µM: Homo sapiens, HepG2, 72 h, read-out: cell viability (survival rate), HepG2, drug 10 μM, 72 hours, WST-1, OD450 nm.
Series [7] deals with AGS (Gastric Adenocarcinoma). The experiment in a line: Cell viability analysis, gastric cancer AGS. The conditions noted are these: for viability at 10 µM: Homo sapiens, 72 h, read-out: cell viability (survival rate), AGS, drug 10 μM, 72 hours, WST-1, OD450 nm; for cell viability (survival rate), AGS: drug 10 μM, 72 hours, WST-1, OD450 nm.
The subject of series [8] is A375 (Amelanotic Melanoma). The experiment in a line: Cell viability analysis, skin cancer A375. Conditions: for viability at 10 µM: Homo sapiens, A-375, 72 h, read-out: cell viability (survival rate), A375, drug 10 μM, 72 hours, WST-1, OD450 nm; for cell viability (survival rate), A375: drug 10 μM, 72 hours, WST-1, OD450 nm.
For series [9], the system named is LoVo (Colorectal Adenocarcinoma). The experiment in a line: Cell viability analysis, colon cancer LoVo. The conditions noted are these: for viability at 10 µM: Homo sapiens, LoVo.
Series [10] concerns PC3 (p53−) (Prostate Adenocarcinoma). The experiment in a line: Cell viability analysis, prostate cancer PC3. Conditions: 72 h.
Series [11] deals with cancer cell lines. The experiment in a line: Cell viability analysis (WST-1) on cancer cell lines. The conditions noted are these: drug 10 μM, 72 hours; for inhibition effect on different cancer cell lines: WST-1, Table 3.
The subject of series [12] is HeLa (Cervix Adenocarcinoma). The experiment in a line: Cell viability analysis, cervical cancer HeLa. Conditions: for viability at 10 µM: Homo sapiens, HeLa, 72 h, read-out: cell viability (survival rate), HeLa, drug 10 μM, 72 hours, WST-1, OD450 nm; for cell viability (survival rate), HeLa: drug 10 μM, 72 hours, WST-1, OD450 nm.
The subject of series [13] is HL-60 (Acute Promyelocytic Leukemia). The experiment in a line: Cell viability analysis, leukemia HL-60. The conditions noted are these: for viability at 10 µM: Homo sapiens, HL-60, 72 h, read-out: cell viability (survival rate), HL-60, drug 10 μM, 72 hours, WST-1, OD450 nm; for cell viability (survival rate), HL-60: drug 10 μM, 72 hours, WST-1, OD450 nm.
Where [14] appears, read: 72 h, read-out: cell viability (survival rate), LoVo, drug 10 μM, 72 hours, WST-1, OD450 nm.
The mark [15] stands for this setting: drug 10 μM, 72 hours, WST-1, OD450 nm.

Like-named read-outs stand apart in the source and are kept apart here.

As usually defined, the viability is a read-out of living cells in per cent, often relative to untreated cells. Turning to `CC1(C)S[C@@H]2[C@H](NC(=O)[C@H](N)c3ccccc3)C(=O)N2[C@H]1C(=O)O` [Ampicillin sodium], the “cell viability (survival rate), MCF7” value in series [1] (human, 72 h, 10 µM) is recorded as 99.1. Moreover, the “cell viability (survival rate), A549” value in series [2] (human, 72 h, 10 µM) was determined as 102.6. Besides, the viability at 10 µM is 53.5% in series [3]; 72% in series [5]; 76.1% in series [6]; 105% in [7]; 68.9% in [8]; 88.9% in series [9] (setting [14]). The viability at 10 µM in series [12] is 75.2%. In addition, the “cell viability (survival rate), MKN-45” value in series [4] (human, 72 h, 10 µM) is listed as 77.9. For the same molecule, the “cell viability (survival rate), PC3” value in series [10] (human, 10 µM) is given as 98.1. Moreover, in series [11], the “inhibition effect on different cancer cell lines” value is “significant inhibition effect”.

With `O=C(O)CCCC[C@@H]1SC[C@@H]2NC(=O)N[C@@H]21` [Biotin (Vitamin B7), Biotin], the viability at 10 µM in series [1] is 89.1%; in series [2], 86.4%; in series [3], 94.2%; in [4], 85.1%; in [5] it was 93.5%; in [7] it was 104%. In addition, the viability at 10 µM in series [8] turned out to be 71.3%; in series [9] (setting [14]), 99.2%; in series [13] it was 85.2%; in series [12] it was 90.7%. Further, the “inhibition effect on different cancer cell lines” value in [11] is “significant inhibition effect”.

As to `CN(C)CCC(c1ccc(Br)cc1)c1ccccn1` (stereo not drawn) [Brompheniramine], the viability at 10 µM in [1] came out at 75.8%; in series [2], 109%; in series [3] it was 83%; in series [4] it was 85.8%; in series [5], 97.9%; in series [6], 95.7%. Further, the viability at 10 µM in series [7] is 121%; in [9] (setting [14]), 98.9%; in series [13], 122%; in [12] it was 111%. The “inhibition effect on different cancer cell lines” value in [11] is listed as “significant inhibition effect”.

As to `CC(=O)OCC1=C(C(=O)O)N2C(=O)[C@@H](NC(=O)CSc3ccncc3)[C@H]2SC1` [Cephapirin Sodium], the viability at 10 µM in [1] came to 49.5%; in [2], 57.7%; in series [3], 76.2%; in series [4], 69.1%; in series [5], 78.2%; in series [6] it was 79.8%. Also, the viability at 10 µM in series [7] worked out at 79.8%; in series [8] it was 50.2%; in series [9] (setting [14]), 92.8%; in [13], 84.3%; in [12] it was 69.2%. Besides, the “inhibition effect on different cancer cell lines” value in series [11] is reported as “significant inhibition effect”.

Consider `O=c1[nH]cnc2c1ncn2[C@H]1CC[C@@H](CO)O1` [Didanosine (Videx), Didanosine], for which the viability at 10 µM was 78.4% in series [1]; 67.5% in series [2]; 64.2% in series [3]; 62% in series [4]; 76.7% in [5]; 119% in series [6]. Also, the viability at 10 µM in series [7] was 48.7%; in series [8], 77.2%; in [9] (setting [14]), 95.1%; in [13], 126%; in series [12], 80.3%. Moreover, the “inhibition effect on different cancer cell lines” value in series [11] is “significant inhibition effect”.

As for `C[C@@H](O)[C@H]1C(=O)N2C(C(=O)O)=C(S[C@@H]3CN[C@H](CNS(N)(=O)=O)C3)[C@H](C)[C@H]12` [Doripenem Hydrate], the viability at 10 µM in series [1] was found to be 99.8%; in [2], 70.9%; in series [3], 78.5%; in series [4], 111%; in series [5], 79.9%; in [6], 106%. Also, the viability at 10 µM in [7] was 66.5%; in series [9] (setting [14]), 95.2%; in series [13], 91.2%; in series [12], 122%. Besides, in series [11], the “inhibition effect on different cancer cell lines” value is listed as “significant inhibition effect”.

Regarding `C[C@]12CCC(=O)C=C1CC[C@@H]1[C@@H]2[C@@H](O)C[C@@]2(C)[C@H]1CC[C@]2(O)C(=O)CO` [Hydrocortisone (Cortisol), Hydrocortisone], the viability at 10 µM in series [1] came to 76.9%; in series [2], 73.6%; in series [3] it was 66.1%; in series [4], 81.3%; in [5] it was 125%; in series [6] it was 109%. Besides, the viability at 10 µM in series [7] worked out at 77.5%; in series [8], 87.6%; in series [9] (setting [14]) it was 83.3%; in series [13], 105%; in series [12] it was 86.1%. For the same molecule, the “inhibition effect on different cancer cell lines” value in series [11] is “significant inhibition effect”.

In the case of `Cc1cccn2c(=O)c(-c3nnn[nH]3)cnc12` [Pemirolast (BMY 26517) potassium, Pemirolast potassium], the viability at 10 µM in series [1] was 83.2%; in series [2], 82.9%; in series [3], 81.8%; in [5], 93.7%; in series [6], 82.1%; in series [7], 69.4%. In addition, the viability at 10 µM in series [8] was found to be 70.8%; in series [9] (setting [14]), 107%; in series [10] (Homo sapiens, read-out: cell viability (survival rate), PC3, drug 10 μM, 72 hours, WST-1, OD450 nm), 53.8%; in series [12] it was 88.4%. Also, in [11], the “inhibition effect on different cancer cell lines” value is “significant inhibition effect”.

`CCN1CCN(C(=O)N[C@@H](C(=O)N[C@@H]2C(=O)N3[C@@H]2SC(C)(C)[C@@H]3C(=O)O)c2ccccc2)C(=O)C1=O` [Piperacillin Sodium]: the viability at 10 µM turned out to be 52.3% in series [1]; 37.1% in series [2]; 71.6% in series [3]; 87.1% in [4]; 87.1% in [5]; 96.3% in series [6]. Moreover, the viability at 10 µM amounted to 98.3% in [7], 67.9% in series [8], 97.4% in series [9] (setting [14]) and 108% in series [13]. Besides, the “inhibition effect on different cancer cell lines” value in series [11] was “significant inhibition effect”.

`CC1(C)[C@H](C(=O)O)N2C(=O)C[C@H]2S1(=O)=O` [Sulbactam]: in series [9] (drug 10 μM, 72 hours, WST-1, OD450 nm, read-out: cell viability (survival rate), LoVo), the viability at 10 µM stood at 81.7%. Besides, the “inhibition effect on different cancer cell lines” value in series [11] is “significant inhibition effect”.

Colistin Sulfate: the “cell viability (survival rate), A549” value in series [2] (setting [15]) was 97.6. Moreover, the “cell viability (survival rate), H1650” value in [3] stood at 62.2. In addition, the “cell viability (survival rate), TSGH” value in series [5] (setting [15]) stood at 36.2. Besides, the “cell viability (survival rate), HepG2” value in series [6] (setting [15]) was 77.7. Moreover, the “cell viability (survival rate), AGS” value in [7] worked out at 26.1. Besides, the “cell viability (survival rate), A375” value in [8] was found to be 36.1. Moreover, the “cell viability (survival rate), LoVo” value in series [9] (setting [15]) was determined as 92.0. The “inhibition effect on different cancer cell lines” value in [11] is given as “significant inhibition effect”. In addition, in series [13], the “cell viability (survival rate), HL-60” value turned out to be 108.9. Further, the “cell viability (survival rate), HeLa” value in series [12] amounted to 84.3.

For the molecule “Salbutamol sulfate [Salbutamol sulfate (Albuterol)]”, the “cell viability (survival rate), MCF7” value in series [1] (setting [15]) amounted to 139.6. For the same molecule, in [2] (setting [15]), the “cell viability (survival rate), A549” value is on record as 94.6. Also, in series [3], the “cell viability (survival rate), H1650” value amounted to 84.3. For the same molecule, the “cell viability (survival rate), MKN-45” value in series [4] (setting [15]) was 71.2. Moreover, in [7], the “cell viability (survival rate), AGS” value is 91.8. In addition, the “cell viability (survival rate), A375” value in series [8] was determined as 98.0. Also, the “cell viability (survival rate), LoVo” value in series [9] (setting [15]) was 97.1. Moreover, the “Inhibitory effect on cancer cell line” value in series [11] (WST-1, OD450 nm, Table 2: drugs which do not have significant inhibitory effect) turned out to be 0. The “inhibition effect on different cancer cell lines” value in [11] is listed as “significant inhibition effect”. The “cell viability (survival rate), HL-60” value in series [13] is 104.1. Also, in series [12], the “cell viability (survival rate), HeLa” value is 99.9.
